Data published in the supplement of paper PMC10307832.

What was measured:
Assay in all cases: relative viability (nuclei count vs DMSO), 5 days (fraction); higher = more cells survive
[1] = compound: COC1=CC=C(C=C1)CN2C=CC3=C2C=C(C=C3)C(=O)NO + COc1cccc2cc(-c3nc([C@H]4CC[C@H](C(=O)O)CC4)n4ncnc(N)c34)[nH]c12 [OSI-027] (partner 0.5 µM)
In short: (§1)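 Lung cancer cell lines in 1536-well plates were dosed by pin tool the day after seeding, either with one drug alone or with a fixed anchor-drug dose plus five library-drug doses (not always all listed) in √10 steps. After 5 days, cells were fixed and their nuclei stained in one step (final 0.05% Triton X-100, 1% formaldehyde, 1 ug/ml Hoechst), then counted on 4× images. Relative viability is the nuclei count in treated wells divided by that in vehicle wells. Values are medians of duplicate plates.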

[2] = compound: COC1=CC=C(C=C1)CN2C=CC3=C2C=C(C=C3)C(=O)NO + CS(=O)(=O)N1CCN(Cc2cc3nc(-c4cccc5[nH]ncc45)nc(N4CCOCC4)c3s2)CC1 [Pictilisib] (partner 1 µM)
In short: as §1

[3] = compound: C[C@]1(c2nc3c(C(N)=O)cccc3[nH]2)CCCN1 [Veliparib] + CS(=O)(=O)CCNCc1ccc(-c2ccc3ncnc(Nc4ccc(OCc5cccc(F)c5)c(Cl)c4)c3c2)o1 [Lapatinib] (partner 2 µM)
In short: as §1

[4] = compound: C[C@]1(c2nc3c(C(N)=O)cccc3[nH]2)CCCN1 [Veliparib] + Cc1nc(Nc2ncc(C(=O)Nc3c(C)cccc3Cl)s2)cc(N2CCN(CCO)CC2)n1 [Dasatinib] (partner 0.075 µM)
In short: as §1

Row | Cell Line | relative viability ([1]; first compound 0.08 µM) | relative viability ([1]; first compound 0.253 µM) | relative viability ([1]; first compound 0.8 µM) | relative viability ([1]; first compound 2.53 µM) | relative viability ([1]; first compound 8 µM) | relative viability ([2]; first compound 0.08 µM) | relative viability ([2]; first compound 0.253 µM) | relative viability ([2]; first compound 0.8 µM) | relative viability ([2]; first compound 2.53 µM) | relative viability ([2]; first compound 8 µM) | relative viability ([3]; first compound 0.02 µM) | relative viability ([3]; first compound 0.06325 µM) | relative viability ([3]; first compound 0.2 µM) | relative viability ([3]; first compound 0.6325 µM) | relative viability ([3]; first compound 2 µM) | relative viability ([4]; first compound 0.02 µM) | relative viability ([4]; first compound 0.06325 µM) | relative viability ([4]; first compound 0.2 µM) | relative viability ([4]; first compound 0.6325 µM) | relative viability ([4]; first compound 2 µM)
1 | PC-3 [JPC-3] | 0.766 | 0.781 | 0.726 | 0.813 | 0.761 | 0.781 | 0.713 | 0.747 | 0.805 | 0.718 | 0.422 | 0.397 | 0.454 | 0.476 | 0.477 | 1.04 | 0.93 | 0.967 | 0.985 | 0.975
2 | LOU-NH91 | 0.761 | 0.699 | 0.729 | 0.749 | 0.709 | 0.45 | 0.53 | 0.522 | 0.528 | 0.497 | 0.708 | 0.656 | 0.82 | 0.735 | 0.781 | 0.529 | 0.522 | 0.537 | 0.544 | 0.53
3 | NCI-H838 | – | 0.361 | 0.41 | 0.395 | 0.398 | – | 0.464 | 0.512 | 0.413 | 0.399 | 1.12 | 0.842 | 0.902 | 0.847 | 0.979 | 0.269 | 0.287 | 0.256 | 0.246 | 0.326
4 | NCI-H23 | 0.511 | 0.68 | 0.582 | 0.732 | 0.53 | 0.275 | 0.538 | 0.49 | 0.559 | 0.349 | 1.19 | 0.995 | 0.84 | 0.873 | 1.01 | 0.622 | 0.71 | 0.753 | 0.75 | 0.87
5 | NCI-H2023 | 0.369 | 0.406 | 0.418 | 0.372 | 0.344 | 0.105 | 0.239 | 0.227 | 0.236 | 0.202 | 0.428 | 0.759 | 0.743 | 0.745 | 0.862 | 0.511 | 0.596 | 0.532 | 0.547 | 0.625
6 | NCI-H1993 | 0.525 | 0.626 | 0.53 | 0.571 | 0.521 | 0.717 | 0.0552 | 0.772 | 0.837 | 0.756 | 0.794 | 0.759 | 0.823 | 0.851 | 0.85 | 0.496 | 0.571 | 0.537 | 0.64 | 0.522
7 | UMC-11 | – | 0.469 | 0.554 | 0.463 | 0.477 | 0.28 | 0.82 | 0.864 | 0.756 | 0.748 | 0.893 | 1 | 0.841 | 1.09 | 1.07 | 0.505 | 0.451 | 0.483 | 0.452 | 0.542
8 | NCI-H1437 | 0.774 | 0.907 | 0.897 | 0.807 | 0.907 | 0.47 | 0.449 | 0.473 | 0.481 | 0.412 | 0.519 | 0.794 | 0.72 | 0.78 | 0.759 | 0.212 | 0.36 | 0.424 | 0.421 | 0.249
9 | NCI-H1563 | 0.626 | 0.812 | 0.739 | 0.724 | 0.712 | 0.547 | 0.656 | 0.645 | 0.706 | 0.618 | 0.695 | 1.02 | 0.976 | 0.978 | 0.987 | 0.462 | 0.474 | 0.4 | 0.491 | 0.482
10 | LU99A | – | 0.326 | 0.295 | 0.259 | 0.258 | – | 0.338 | 0.355 | 0.295 | 0.283 | 1.03 | 0.926 | 0.585 | 0.859 | 0.87 | 0.592 | 0.51 | 0.612 | 0.517 | 0.431
11 | NCI-H1755 | 0.632 | 0.746 | 0.732 | 0.732 | 0.708 | 0.267 | 0.458 | 0.51 | 0.383 | 0.363 | 1.02 | 1 | 1.01 | 0.99 | 0.989 | 0.392 | 0.37 | 0.401 | 0.375 | 0.413
12 | LXF-289 | – | 0.823 | 0.896 | 0.908 | 0.716 | 0.309 | 0.779 | 0.754 | 0.799 | 0.723 | 0.903 | 0.878 | 0.897 | 0.904 | 0.928 | 0.251 | 0.2 | 0.251 | 0.204 | 0.224
13 | NCI-H460 | 0.547 | 0.721 | 0.664 | 0.607 | 0.595 | 0.0712 | 0.248 | 0.405 | 0.377 | 0.348 | – | 0.866 | 0.909 | 0.904 | 1.01 | 0.456 | 0.393 | 0.419 | 0.466 | 0.479
